Data from a melting point compilation (Tetko et al.; mined from patent text by program, amines drawn as free bases though some values may be those of a salt).
Starred links: 1 amine or outer side, 2 acyl side, 3 side chain; linkers in the order of their positions; H or OH if unused. Residues, ends and D or L forms follow the SMILES beside them. Glutaryl = O=C(CCCC(=O)[*:2])[*:1]

Row | SMILES | melting point
1 | O=C1c2ccccc2-c2c1c(Cl)nc1cc(O)ccc21 | > 300 °C
2 | O=c1cc(-c2ccc(O)c(CO)c2)oc2cccnc12 | 226 to 227 °C
3 | CCOC(=O)CSc1ccc([N+](=O)[O-])cc1C1C(C(=O)OC)=C(C)N(C)C(C)=C1C(=O)OC | 118 °C
4 | CN1Cc2c(C#N)ncn2-c2ccc(Cl)cc2C1=O | 272 to 275 °C
5 | NCC1Cc2cc(C(F)(F)F)cc(-c3cccc(Cl)c3Cl)c2O1 (configuration not stated) | 152 to 155 °C
6 | CCOc1c(/C=C\CO)cc(C(C)(C)C)cc1C(C)(C)C | 93 to 94 °C
7 | CCCS(=O)(=O)N=C(N[N+](=O)[O-])SC | 91 to 93 °C
8 | COc1cc2ncnc(Nc3ccc(F)c(Cl)c3)c2cc1OCC1(C)COC1 | 226 to 227 °C
9 | CCCCCCCCCCCCCCCCCCc1nc2ncccc2o1 | 84 to 85 °C
10 | Cc1ncccc1[N+](=O)[O-] | 29 to 31 °C
11 | O=C(Nc1ccccn1)c1cnc2c(C(F)(F)F)cccc2c1O | 335 to 336 °C
12 | CC(=O)NNCC1CC2c3cccc4[nH]cc(c34)CC2N(C)C1 (configuration not stated) | 213 to 215 °C
13 | Cc1c(C)c(C)c(S(=O)(=O)NCCc2ccc(C(=CCCCC(=O)O)c3cccnc3)cc2)c(C)c1C | 158 to 160 °C
14 | COCc1c(C(=O)OC(C)C)ncc2[nH]c3cccc(-c4cccnc4)c3c12 | 187 to 188 °C
15 | CCc1ccc2nc(C)c(S(=O)(=O)NC(=O)Nc3nc(OC)cc(OC)n3)n2n1 | 172 to 174 °C
16 | O=C(O)C(=O)c1ccc(OCCCc2ccccc2)cc1 | 58 to 59 °C
17 | COC(=O)CCCCCNC(=O)C(CSC(C)=O)Cc1ccccc1 (configuration not stated) | 50 to 54 °C
18 | CC(C)NC1=NS(=O)(=O)c2ccc(S(C)(=O)=O)cc2N1 | > 300 °C
19 | O=[N+]([O-])c1ccc2oc(-c3ccc(Cl)cc3)nc2c1 | 217 to 218 °C

Row | SMILES | melting point
20 | Cn1cc(-c2ccc3ncn(Cc4ccc5ncccc5c4)c3n2)cn1 | 150 to 152 °C
21 | CCCCOc1cc(-c2cc3ccccc3[nH]2)ccc1O | 163 °C
22 | Cc1ccccc1-c1ccc(C(=O)N2Cc3ccc(C(=O)NCc4ccccc4)n3Cc3ccccc32)cc1C | 138 to 141 °C
23 | CCCCCCCCCCCC(=O)c1cn(S(=O)(=O)c2ccc(C)cc2)c2ccccc12 | 79 to 80 °C
24 | CC[C@@H]1C(=O)N(Cc2ccc(OC)cc2OC)[C@H]1CC(=O)O (relative stereo) | 131 °C
25 | Nc1ccccc1Sc1cccc2c1C(=O)c1cccc(Sc3ccccc3N)c1C2=O | 283 to 284 °C
26 | CCOC(=O)c1cc(-c2cccc(C(F)(F)F)c2)c(OCCO)c(-c2cccc(C(F)(F)F)c2)c1 | 154 to 158 °C
27 | COc1cc(C(=O)C#CCOC(C)=O)cc(OC)c1OC | 104 to 105 °C
28 | COc1cc(CC(C#N)C(OC)OC)cc(OC)c1Cl (configuration not stated) | 84 °C
29 | O=C(O)Cn1c(=S)c2ccccc2n(Cc2ccc(Cl)cc2Cl)c1=O | 220 to 221 °C
30 | NC(CF)C(=O)c1ccccc1 (configuration not stated) | 40 to 42 °C
31 | Cc1cccc2c1n(CCS(C)(=O)=O)c(=O)n2C(=O)N[C@H](C(=O)N(C)C)C(C)(C)C | 191 °C
32 | O=C(O)c1cc(NCCc2ccc([N+](=O)[O-])cc2)ccc1O | 234 to 236 °C
33 | Cc1ccc(C(=O)N(C)C)cc1-c1nc(NCCNC(C)C)nc2c1CNC(=O)N2c1c(F)cccc1F | 130 to 133 °C
34 | CN1CC=C(c2c[nH]c3ccc(N)cc23)C(F)C1 (configuration not stated) | 176 to 178 °C
35 | CCNC(=O)CNC(=S)c1cccnc1 | 136 to 138 °C
36 | NC(CNCCO)(CC(=O)O)c1ccccc1 (configuration not stated) | 140 to 143 °C
37 | CCOC(=O)Cc1ccc(C(=O)c2ccc(Cl)cc2)n1C | 74 to 76 °C
38 | CC(C)SC(=O)Cc1cc(Oc2ccc(C(F)(F)F)cc2Cl)ccc1[N+](=O)[O-] | 102 to 104 °C

Row | SMILES | melting point
39 | Cn1nc2c(-c3ccc(Cl)cc3Cl)cccc2c1C(=O)c1ncn[nH]1 | 284 to 285 °C
40 | O=C(O)Cn1c(=O)n(Cc2ccccc2)c2ccccc21 | 200 to 202 °C
41 | CNC(=Nc1cccc(C(F)(F)F)c1)C(C)C | 52 to 54 °C
42 | CCc1cnc2c(c1)S(=O)(=O)NC2=O | 199 to 201 °C
43 | CCNC(=O)C1CCCN1C(=O)C(C)NC(=O)C(C)NC(=O)CCCC(=O)O (stereo not drawn) (Glutaryl-Ala-Ala-Pro-NHEt; configuration not given here) | 154 to 156 °C
44 | CCOC(=O)C=Cc1cc(Cl)cc(Cl)c1 | 71 to 73 °C
45 | O=c1[nH]c(-c2ccccc2)c(-c2ccncc2)o1 | 300 °C
46 | COC(=O)C(C(C)=O)C(c1cccc([N+](=O)[O-])c1)C(C(C)=O)C(=O)OC (configuration not stated) | 94 to 96 °C
47 | N#Cc1ccc(C=Cc2ccccn2)cc1 | 98 °C
48 | CC(n1ncnn1)C(F)(c1ccc(OC(F)(F)F)cc1)c1ccc(OC(F)(F)F)cc1 (configuration not stated) | 68 to 70 °C
49 | Nc1cc(-n2cccc2)ccc1Nc1cccc(-c2cncnc2)c1 | 190 to 192 °C
50 | CN1CCC(c2c[nH]c(-c3ccc(F)cc3)c2-c2ccncc2)=CC1Cc1ccccc1 (configuration not stated) | 198 to 200 °C
51 | COC(=O)SN(C(=O)NC(=O)c1c(F)cccc1F)c1ccc(Oc2ccc(C(F)(F)F)cc2Cl)cc1 | 108 to 109 °C
52 | N#Cc1cc(SC(F)(F)F)[nH]c1-c1ccc(Cl)cc1 | 203 to 205 °C
53 | O=C(O)CCCc1c(-c2ccc(F)cc2)[nH]c2ccc(-c3ccc(O)cc3)cc12 | 180 to 183 °C
54 | Cc1c[nH]c2c(/C=C/C#N)cccc12 | 225 to 227 °C
55 | CCCCCN1C(=O)C(O)(c2ccc3c(c2)OCO3)c2cccnc21 (configuration not stated) | 104 to 105 °C
56 | CCC12CCC3C4CCCC=C4CCC3C1CCC2O (configuration not stated) | 118 to 120 °C
57 | CCOC(Cc1ccc(OCCN2c3ccccc3Oc3ccccc32)cc1)C(=O)OC (configuration not stated) | 88 to 90 °C

Further lines, results first:

Row | melting point | SMILES
58 | 222 to 224 °C | O=C(c1ccc(Nc2ccnc3cc(C(F)(F)F)ccc23)cc1)N1CCN(c2c(Cl)c(Cl)nc(Cl)c2Cl)CC1
59 | 232 to 240 °C | CN1CCc2c(-c3ccc(S(=O)(=O)N(C)C)cc3)cc3c(c2C1)N(C)C(=O)C3=O
60 | 90 to 91 °C | c1cnc(N2CCN(Cc3ccc4c(c3)SCO4)CC2)nc1
61 | 126 to 127 °C | CN(C)CCCC#Cc1cnc(N)nc1
62 | 184 °C | CC(C)(C)OC(=O)CCc1cc(S(C)(=O)=O)cc(-c2nc(=O)c3ccc(Cl)cc3s2)n1
63 | 178 to 180 °C | Cc1ccccc1-n1c(C)nc2c(c1=O)N(Cc1ccccc1)NN2
64 | 84 to 86 °C | Clc1csc(-c2cccnc2)n1
65 | 183 to 184 °C | COc1cc2c(cc1OC)[C@@H]1CN(C)CC[C@@H]1N=C2c1ccc(Cl)c(Cl)c1 (relative stereo)
66 | 171 to 172 °C | COc1ccc(C(C)(C#N)CNC(=O)C(N)=O)cc1OC1CCCC1 (configuration not stated)
67 | 83.6 °C | CCCCC[C@H]1CC[C@H](CCc2ccc(CCC)c(C#N)c2C#N)CC1
68 | 189 to 190 °C | Cc1nc(N)ccc1NC(=NC#N)Oc1ccccc1
69 | > 260 °C | NC(=O)Cc1ccc2c(c1)Cc1c-2[nH]c(=O)c2nccn12
70 | 114 °C | Cc1ccc2c(n1)C(C(N)=O)CCC2 (configuration not stated)
71 | 140 °C | Cc1ccc(C(=O)Nc2cn(C3CCCCO3)nc2C(=O)NCCO)cn1 (configuration not stated)
72 | 179 to 182 °C | Cn1cc(C(=O)NCc2ccc(Cl)cc2)c(=O)c2cc(CN3CCOCC3)cc(C#CCCCO)c21
73 | 65 to 66 °C | CN(C)C(=O)n1nc(N(C)C)c2ccc(Cl)cc21
74 | 114 to 116 °C | CCOC(=O)c1c(Cn2cncn2)nc2ccc(Cl)cc2c1-c1ccccc1
75 | 243 to 244 °C | CS(=O)c1ccc2nc3sc(C(=O)O)cn3c(=O)c2c1 (configuration not stated)
76 | 151 to 153 °C | COc1ccc(CN2CCN(CC(=O)N3CC=C(c4cccc(C(F)(F)F)c4)n4ncc(C#N)c43)CC2)cc1
77 | 104 to 107 °C | COC(=O)C(CC(=O)O)Cc1ccc(OC)c(OC)c1 (configuration not stated)
78 | 264 to 265 °C | NC(=S)c1sc(N2CCCC2)nc1N
79 | 125 to 128 °C | COc1ccc(-c2nc(CCl)cs2)cc1
80 | 146 to 147 °C | CCCCOc1c(CNC(=O)OC(C)(C)C)n(CC(C)C)c(=O)c2ccc(-c3nc(C)c(C(=O)OCC)s3)cc12

Row | melting point | SMILES
81 | 187 to 188 °C | CC(Sc1nc(N)cc(Cl)n1)c1cc2ccoc2cn1 (configuration not stated)
82 | 188 °C | COc1ccccc1CNc1nc(Cl)nc2c1ncn2[C@@H]1SC[C@@H](O)[C@H]1O
83 | 156 °C | Cc1ccc(O)c(Cn2c(N)nc3ccc(CNc4cccc(OC(F)(F)F)c4)cc32)n1
84 | 248 to 250 °C | COc1cc2nc(N)nc(-c3ccc(Cl)cc3)c2cc1OC
85 | 295 to 297 °C | O=c1[nH]c2ccc(F)cc2c2cc(CO)nn12
86 | 109 to 111 °C | NCC1(Cc2noc(=O)[nH]2)CCCCC1
87 | 80 to 102 °C | Clc1ccccc1C(Oc1ccccc1)C1CNCCO1 (configuration not stated)
88 | 162 to 163 °C | CCOC(=O)c1sc2ccc(O)c(C=Nc3ccc(OC)cc3)c2c1Cl
89 | 169 to 171 °C | CCOC(=O)Nc1ccc2c(c1)c1c(n2Cc2cccc(F)c2)CC[C@@H](NC(=O)C(C)C)C1
90 | 120 °C | Cc1nc(C(O)(Cn2cncn2)c2ccc(F)cc2)cs1 (configuration not stated)
91 | 130 to 133 °C | CCOC(=O)C1(CCCN)CCCCC1(O)c1ccccc1 (configuration not stated)
92 | 79 to 80 °C | CCc1cc(C)c2c(C3CCCCC3)cc(=O)n(CC)c2n1
93 | 130 °C | COc1cc(CN(C)c2ncnc3c(N4CCOCC4)nc(N4CCC(N(C)C)CC4)nc23)cc2ccccc12
94 | 155 to 159 °C | Clc1cn2cc(Br)ccc2n1
95 | 223 to 225 °C | Nc1ccc(C2=NN=C(c3ccccn3)N(C(=O)c3ccccc3)N2)nc1
96 | 116 to 118 °C | Nc1nc(CC(=O)Nc2cccc(C(F)(F)F)c2)cs1
97 | 151 to 153 °C | CCn1nc(-c2ccccc2)c(C(C)=O)c(N)c1=O
98 | 176 to 177 °C | COc1ccc(CSc2nnc(-c3ccnc(NC(=O)CCc4ccccc4)c3)o2)cc1C#N
99 | 166 to 171 °C | CC(C)CC(C)(C(=O)NC1CCCCCCCCCCNC1=O)c1ccccc1S (configuration not stated)
100 | 232 °C | O=C(O)c1cc2cc(F)c(F)cc2nc1Cl
101 | 201 to 202 °C | NC(=O)C1CCc2sc3ccc(F)cc3c2C1 (configuration not stated)
102 | 212 °C | CCn1c(=S)sc2c(=N)n(NC(N)=O)cnc21
